# pIC50: −log10 of the molar value.
# Molecular target: PARP7 (Homo sapiens (Human), UniProt Q7Z3E1)
# Experiment: Enzymatic assay for inhibition of PARP7: TR-FRET displacement of biotinylated Probe A from the TIPARP active site
# Format: binding
# Conditions: Table A-1
# Procedure, shortened: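 Compound dose-response series were incubated with TIPARP and biotinylated Probe A, with a final 30 min step at 25 °C. TR-FRET was read at 320 nm excitation, 615/665 nm emission and 90 μs delay, using the 665/615 ratio to measure complex formation. % inhibition was fitted with a floating or fixed (1) Hill coefficient.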
# PARP7, sequence (Q7Z3E1 whole entry): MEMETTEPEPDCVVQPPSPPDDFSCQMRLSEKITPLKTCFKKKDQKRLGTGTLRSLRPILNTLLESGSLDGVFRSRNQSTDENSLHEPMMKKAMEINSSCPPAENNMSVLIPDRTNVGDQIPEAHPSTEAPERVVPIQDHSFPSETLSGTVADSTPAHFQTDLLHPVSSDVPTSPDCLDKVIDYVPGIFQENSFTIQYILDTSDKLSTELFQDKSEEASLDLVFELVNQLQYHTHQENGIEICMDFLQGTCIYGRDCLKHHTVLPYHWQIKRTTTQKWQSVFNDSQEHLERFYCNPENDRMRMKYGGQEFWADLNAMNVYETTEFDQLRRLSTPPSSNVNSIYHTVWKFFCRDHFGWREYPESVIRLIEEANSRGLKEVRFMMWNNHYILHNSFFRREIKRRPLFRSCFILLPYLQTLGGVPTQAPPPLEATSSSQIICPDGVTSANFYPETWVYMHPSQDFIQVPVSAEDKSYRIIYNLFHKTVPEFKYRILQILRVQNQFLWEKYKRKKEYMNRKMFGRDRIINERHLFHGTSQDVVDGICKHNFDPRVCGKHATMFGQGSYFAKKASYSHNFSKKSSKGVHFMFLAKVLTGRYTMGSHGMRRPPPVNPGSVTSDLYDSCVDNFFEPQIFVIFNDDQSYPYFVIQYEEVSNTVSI
row,SMILES,pIC50
1,"O=C(c1cccc(OC[C@H]2c3ccccc3CN2c2cn[nH]c(=O)c2C(F)(F)F)c1)N1CCn2c(nnc2C(F)(F)F)C1 [Example 372, (R)-4-(Trifluoromethyl)-5-(1-((3-(3-(trifluoromethyl)-5,6,7,8-tetrahydro-[1,2,4]triazolo[4,3-a]pyrazine-7-carbonyl)phenoxy)methyl)isoindolin-2-yl)pyridazin-3(2H)-one]",≤ 6.00
2,"O=c1[nH]ncc(N2Cc3cccc(OC4CCNCC4)c3C2)c1Br [Example 172, 4-Bromo-5-(4-(piperidin-4-yloxy)isoindolin-2-yl)pyridazin-3(2H)-one]",6.00 to 7.00
3,"O=C(CCOC[C@@H](Nc1cn[nH]c(=O)c1C(F)(F)F)[C@@H]1CCOC1)N1CCN(c2ncc(C(F)(F)F)cn2)CC1 (single isomer, unassigned) [Example 614 Isomer A]",≤ 6.00
4,"COc1nccc2c1CN(c1cn[nH]c(=O)c1C(F)(F)F)C2 [Example 346, 5-(4-Methoxy-1,3-dihydro-2H-pyrrolo[3,4-c]pyridin-2-yl)-4-(trifluoromethyl)pyridazin-3(2H)-one]",> 7.00
5,"N#Cc1ccc(N2CCN(C(=O)COCCOCC3CCN(c4cn[nH]c(=O)c4C(F)(F)F)C3)CC2)nc1 (centres unmarked) [Example 478, 6-(4-(2-(2-((1-(6-Oxo-5-(trifluoromethyl)-1,6-dihydropyridazin-4-yl)pyrrolidin-3-yl)methoxy)ethoxy)acetyl)piperazin-1-yl)nicotinonitrile]",6.00 to 7.00
6,"O=c1[nH]ncc(N2Cc3ccc(OC4CCCNC4)cc3C2)c1C(F)(F)F (centres unmarked) [Example 244, 5-(5-(Piperidin-3-yloxy)isoindolin-2-yl)-4-(trifluoromethyl)pyridazin-3(2H)-one]",6.00 to 7.00
7,"COC[C@H](COCCC(=O)N1CCN(c2ccc(C#N)cn2)CC1)Nc1cn[nH]c(=O)c1C(F)(F)F (single isomer, unassigned) [Example 518A]",≤ 6.00
8,"COc1ccc2c(n1)CN(c1cn[nH]c(=O)c1C(F)(F)F)C2 [Example 303, 5-(2-Methoxy-5,7-dihydro-6H-pyrrolo[3,4-b]pyridin-6-yl)-4-(trifluoromethyl)pyridazin-3(2H)-one]",> 7.00
9,"N#Cc1ccc(N2CCN(C(=O)CCOC[C@H]3c4ncccc4CN3c3cn[nH]c(=O)c3Cl)CC2)nc1 [Example 432, (R)-6-(4-(3-((6-(5-Chloro-6-oxo-1,6-dihydropyridazin-4-yl)-6,7-dihydro-5H-pyrrolo[3,4-b]pyridin-7-yl)methoxy)propanoyl)piperazin-1-yl)nicotinonitrile]",6.00 to 7.00
10,"Cc1c(N2Cc3cccc(OCCO)c3C2)cn[nH]c1=O [Example 171, 5-(4-(2-Hydroxyethoxy)isoindolin-2-yl)-4-methylpyridazin-3(2H)-one]",≤ 6.00
11,"C[C@@H](COCCC(=O)N1CCN(c2ncc(C(F)(F)F)cn2)CC1)N(C)c1cn[nH]c(=O)c1C(F)(F)F [Example 641, (S)-5-(Methyl(1-(3-oxo-3-(4-(5-(trifluoromethyl)pyrimidin-2-yl)piperazin-1-yl)propoxy)propan-2-yl)amino)-4-(trifluoromethyl)pyridazin-3(2H)-one]",6.00 to 7.00
12,"O=C(C[C@@H]1CC[C@@H](COc2cn[nH]c(=O)c2Cl)O1)N1CCN(c2ncc(Cl)cn2)CC1 (single isomer, unassigned) [Example 566 Isomer A]",≤ 6.00
13,"C[C@@H](COc1cn[nH]c(=O)c1C(F)(F)F)OCCC(=O)N1CCN(c2ccc(Cl)cn2)CC1 (single isomer, unassigned) [Example 539 Isomer B]",6.00 to 7.00
14,"O=c1[nH]ncc(N2Cc3cccc(N4CCNCC4)c3C2)c1C(F)(F)F [Example 295, 5-(4-(Piperazin-1-yl)isoindolin-2-yl)-4-(trifluoromethyl)pyridazin-3(2H)-one]",6.00 to 7.00
15,"O=C(CCOC[C@@H]1CCCN1c1cn[nH]c(=O)c1C(F)(F)F)NC1CCC(Oc2ccccn2)CC1 (stereo partly drawn) [Example 84, 3-[[(2S)-1-[6-oxo-5-(trifluoromethyl)-1,6-dihydropyridazin-4-yl]pyrrolidin-2-yl]methoxy]-N-[4-(pyridin-2-yloxy)cyclohexyl]propanamide]",6.00 to 7.00
16,"O=c1[nH]ncc(N2Cc3cccc(OCCO)c3C2)c1Cl [Example 161, 4-Chloro-5-(4-(2-hydroxyethoxy)isoindolin-2-yl)pyridazin-3(2H)-one]",6.00 to 7.00

# Now from value to compound:
row,pIC50,SMILES
1,6.00 to 7.00,"O=c1[nH]ncc(N2Cc3cccc(OCCO)c3C2)c1Br [Example 168, 4-Bromo-5-(4-(2-hydroxyethoxy)isoindolin-2-yl)pyridazin-3(2H)-one]"
2,> 7.00,N#Cc1ccc(N2CCN(CCCOC[C@@H]3CCCN3c3cn[nH]c(=O)c3C(F)(F)F)CC2)nc1 [Example 90]
3,> 7.00,"N#Cc1ccc(N2CCN(C(=O)c3cccc(OCCc4cccc5c4CN(c4cn[nH]c(=O)c4C(F)(F)F)C5)c3)CC2)nc1 [Example 401, 6-(4-(3-(2-(2-(6-Oxo-5-(trifluoromethyl)-1,6-dihydropyridazin-4-yl)isoindolin-4-yl)ethoxy)benzoyl)piperazin-1-yl)nicotinonitrile]"
4,> 7.00,"COC[C@@H](COCCC(=O)N1CCN(c2ncc(C(F)(F)F)cn2)CC1)Oc1cn[nH]c(=O)c1Br [Example 666, (S)-4-Bromo-5-((1-methoxy-3-(3-oxo-3-(4-(5-(trifluoromethyl)pyrimidin-2-yl)piperazin-1-yl)propoxy)propan-2-yl)oxy)pyridazin-3(2H)-one]"
5,> 7.00,"O=c1[nH]ncc(N2Cc3cccc(F)c3C2)c1C(F)(F)F [Example 180, 5-(4-Fluoroisoindolin-2-yl)-4-(trifluoromethyl)pyridazin-3(2H)-one]"
6,> 7.00,"N#Cc1ccc(N2CC3CN(C(=O)CCOC[C@@H]4CCCN4c4cn[nH]c(=O)c4C(F)(F)F)CC3C2)nc1 (stereo in doubt) [Example 113, (S)-6-[5-(3-[[1-[6-oxo-5-(trifluoromethyl)-1,6-dihydropyridazin-4-yl]pyrrolidin-2-yl]methoxy]propanoyl)-octahydropyrrolo[3,4-c]pyrrol-2-yl]pyridine-3-carbonitrile]"
7,> 7.00,"N#Cc1ccc(N2CCN(C(=O)CCOC[C@@H]3CCCN3c3cn[nH]c(=O)c3C#N)CC2)nc1 [Example 127, 5-[(2S)-2-([3-[4-(5-cyanopyridin-2-yl)piperazin-1-yl]-3-oxopropoxy]methyl)pyrrolidin-1-yl]-3-oxo-2,3-dihydropyridazine-4-carbonitrile]"
8,> 7.00,"O=C(CCOCCOc1cn[nH]c(=O)c1C(F)(F)F)N1CCN(c2ccc(Cl)cn2)CC1 [Example 535, 5-(2-[3-[4-(5-Chloropyridin-2-yl)piperazin-1-yl]-3-oxopropoxy]ethoxy)-4-(trifluoromethyl)-2,3-dihydropyridazin-3-one]"
9,> 7.00,"CC(Nc1cccc2c1CN(c1cn[nH]c(=O)c1C(F)(F)F)C2)c1ccncc1 (centres unmarked) [Example 271, 5-(4-((1-(Pyridin-4-yl)ethyl)amino)isoindolin-2-yl)-4-(trifluoromethyl)pyridazin-3(2H)-one]"
10,> 7.00,"N#Cc1ccc(N2CCCN(C(=O)CCOC[C@@H]3CCCN3c3cn[nH]c(=O)c3C(F)(F)F)CC2)nc1 [Example 106, (S)-6-(4-(3-((1-(6-oxo-5-(trifluoromethyl)-1,6-dihydropyridazin-4-yl)pyrrolidin-2-yl)methoxy)propanoyl)-1,4-diazepan-1-yl)nicotinonitrile]"
11,> 7.00,"N#Cc1ccc(N2CCN(C(=O)/C=C/COC[C@@H]3CCCN3c3cn[nH]c(=O)c3C(F)(F)F)CC2)nc1 (single isomer, unassigned) [Example 96 Isomer B]"
12,> 7.00,"NC1CCN(c2cccc3c2CN(c2cn[nH]c(=O)c2C(F)(F)F)C3)C1 (centres unmarked) [Example 306, 5-(4-(3-Aminopyrrolidin-1-yl)isoindolin-2-yl)-4-(trifluoromethyl)pyridazin-3(2H)-one]"
13,> 7.00,"CCOc1cccc2c1CN(c1cn[nH]c(=O)c1C(F)(F)F)C2 [Example 192, 5-(4-Ethoxyisoindolin-2-yl)-4-(trifluoromethyl)pyridazin-3(2H)-one]"
14,> 7.00,"N#Cc1ccc(N2CCN(C(=O)c3cncc(OC[C@@H]4c5ccccc5CN4c4cn[nH]c(=O)c4C(F)(F)F)c3)CC2)nc1 [Example 353, (S)-6-(4-(5-((2-(6-Oxo-5-(trifluoromethyl)-1,6-dihydropyridazin-4-yl)isoindolin-1-yl)methoxy)nicotinoyl)piperazin-1-yl)nicotinonitrile]"
15,> 7.00,"O=C(CCOC[C@@H]1CCCN1c1cn[nH]c(=O)c1C(F)(F)F)N1CCN(c2ncccn2)CC1 [Example 456, (S)-5-(2-((3-Oxo-3-(4-(pyrimidin-2-yl)piperazin-1-yl)propoxy)methyl)pyrrolidin-1-yl)-4-(trifluoromethyl)pyridazin-3(2H)-one]"
16,> 7.00,"N#Cc1ccc(N2CCN(C(=O)c3cc(OCC4c5ccccc5CN4c4cn[nH]c(=O)c4C(F)(F)F)ccn3)CC2)nc1 (centres unmarked) [Example 355, 6-(4-(4-((2-(6-Oxo-5-(trifluoromethyl)-1,6-dihydropyridazin-4-yl)isoindolin-1-yl)methoxy)picolinoyl)piperazin-1-yl)nicotinonitrile]"
17,> 7.00,"O=c1[nH]ncc(N2Cc3cc(F)c(N4CCOCC4)cc3C2)c1C(F)(F)F [Example 26, 5-[5-fluoro-6-(morpholin-4-yl)-2,3-dihydro-1H-isoindol-2-yl]-4-(trifluoromethyl)-2,3-dihydropyridazin-3-one]"
18,> 7.00,"O=C(CCOCCNc1cn[nH]c(=O)c1C(F)(F)F)N1CCN(c2ncc(C(F)(F)F)cn2)CC1 [Example 505, 5-[[2-(3-Oxo-3-[4-[5-(Trifluoromethyl)pyrimidin-2-yl]piperazin-1-yl]propoxy)ethyl]amino]-4-(trifluoromethyl)-2,3-dihydropyridazin-3-one]"
19,> 7.00,"CC(=O)N1CCN(C(=O)c2cccc(OCC3c4ccccc4CN3c3cn[nH]c(=O)c3C(F)(F)F)c2)CC1 (centres unmarked) [Example 405, 5-(1-((3-(4-Acetylpiperazine-1-carbonyl)phenoxy)methyl)isoindolin-2-yl)-4-(trifluoromethyl)pyridazin-3(2H)-one]"

# From US10550105B2 (Ribon Therapeutics Inc., priority 2018, dated 2020)
